# Patent US20230416677A1 (XCELL THERAPEUTICS INC., priority 2020, published 2023)
# Key:
# [1] = system: Human dermal papilla cells (hDPC); assay: CCK-8 proliferation of dermal papilla cells in serum-free medium treated with rotenone; assay type: cell-based; details: rotenone 10 to 100 pM, 72 hours, compared to control group (untreated) and PromoCell medium, FIG. 1
# Experimental: Human dermal papilla cells (hDPC) purchased from PromoCell were inoculated in a Follicle Dermal Papilla cell Growth media (Promocell, Heidelberg, Germany) supplemented with 1% Antibiotic and Antimycotic Hyclone sv30079.91 (hereinafter referred to as Promocell medium), and a serum-free medium, and cultured in a 5% carbon dioxide incubator at 37° C. to prepare cells. The prepared human dermal papilla cells (hDPCs) were seeded at a concentration of 2×10^3/well into 96-well plates, in which a serum-free medium treated with different concentrations (0, 1, 10, 100, 1000 pM) of rotenone (Tocris Bioscience, UK) was put, in a Follicle Dermal Papilla cell Growth media as a commercially available medium, and then cultured for 72 hours. Then, the culture medium in each well was removed, then added to 10 ul CCK-8 reagent and 90 ul medium, respectively, and cultured for 2 hours at a temperature of 37° C. The absorbance of the supernatant was measured at 450 nm using an ELISA reader to confirm the extent of cell proliferation.
# [2] = system: Human dermal papilla cells (hDPC); assay: Flow cytometry of dermal papilla cell biological markers; assay type: cell-based; details: serum-free medium with 0.1 g/L albumin and 1 to 100 pM rotenone versus control not treated with rotenone; FIG. 4
# Experimental: The cells were detached from each flask by the use of TrypLE Express, and then the cells were centrifuged. The supernatant was discarded to leave only the cells in the lower layer. The cells were fixed for 15 minutes using a 4% formaldehyde solution, and then reacted on ice for 10 minutes using a 0.5% tween-20 permeabilization solution to prepare cells. The prepared cells were well resuspended in PBS supplemented with 1% FBS, and then the cells were stained using an antibody serving as a previously selected biological marker. CD34 and HLA-DR were selected as negative markers, and alkaline phosphatase, versican, and CD105 were selected as positive markers. After fixing the stained cells with 4% formaldehyde solution for 15 minutes, and flow cytometry was performed using CytoFLEX (Beckman Coulter, USA).
# [3] = system: Human dermal papilla cells (hDPC); assay: Passage culture of dermal papilla cells in albumin-added serum-free medium in the presence or absence of rotenone (density, doubling time, accumulated cell number, viability); assay type: cell-based
# Experimental: hDPCs were prepared in the same manner as in Example 1. […] The hDPCs were inoculated at a concentration of 1.52×10^5/flask. After culturing in a 5% carbon dioxide incubator at 37° C., photographs of the cells were taken before passage to confirm the density of dermal papilla cells according to the rotenone treatment.
# On the other hand, each time the density of the cells proliferated to 90% or more, the cells were passaged. During the passage, the cells were detached from each flask by the use of TrypLE Express, and then the cells were centrifuged. The supernatant was discarded to leave only the cells in the lower layer. The cells were well resuspended by adding a condition-based medium, and then the cell numbers were measured using NC250™ (Chemometec, Denmark). Using the measured cell number and culture time, the doubling time and accumulated cell numbers per day were calculated using the following Equation.
# A=previous passage, B=current passage
# Doubling time=ln(2)×(Δtime between B and A)/ln(count B/count A) [Equation 1]
# Accumulated cell number (ACN)=ACN of A×cell count of B/seeding number [Equation 2]
# Each time the density of the cells proliferated to 90% or more, the cells were passaged. During the passage, the cells were detached from each flask by the use of TrypLE Express, and then the cells were centrifuged. The supernatant was discarded to leave only the cells in the lower layer. The cells were well resuspended by adding a condition-based medium, and then the cell viability was measured using NC250™(Chemometec, Denmark) at each passage.
# cell division = details: background statement; cited from earlier work
structure (smiles),measurement,setting,value
"C=C(C)[C@H]1Cc2c(ccc3c2OC2COc4cc(OC)c(OC)cc4C2C3=O)O1 (stereo in doubt) [rotenone, (2R,6aS,12aS)-1,2,6,6a,12 ,12a-hexahydro-2-isopropenyl-8,9-dimethoxychromeno[3,4-b]furo(2,3-h)chromen-6-one]","proliferation of dermal papilla cells (CCK-8, absorbance 450 nm)",[1],proliferation of dermal papilla cells increases
same,"biological positive markers (alkaline phosphatase, versican, CD105)",[2],maintained at higher levels
same,"negative markers (CD34, HLA-DR)",[2],maintained at lower levels
same,cell density of dermal papilla cells,"[3]; 10 pM rotenone versus rotenone-untreated group, serum-free medium with 0.1 g/L albumin, FIG. 3a",higher cell density
same,doubling time,"[3]; rotenone -treated versus rotenone-untreated group, serum-free medium with 0.1 g/L albumin, FIG. 3b",lower doubling time
same,cell viability,"[3]; rotenone-treated versus rotenone-untreated group, 0.1 g/L albumin, each passage, FIG. 3d",higher cell viability
same,accumulated cell numbers over time,"[3]; rotenone-treated versus rotenone-untreated group, 0.1 g/L albumin, FIG. 3c",higher
same,concentrations at which rotenone is known to inhibit cell division,cell division,10 to 100 nM
